According to patent US8410116B2, “Bis(styryl)pyrimidine or bis(styryl)benzene compounds, pharmaceutically acceptable salts thereof, preparation method thereof, and pharmaceutical composition for prevention or treatment of diseases featuring amyloids comprising the same as an active ingredient” (Korea Institute of Science and Technology, priority 2009, dated 2013):

What was measured:
[1] = system: beta amyloid (1-42) injected mice; assay: Cognitive performance task, acute Alzheimer's disease model; assay type: in vivo; set-up: Cognition % of control: concentration or dose not given beside the values; conditions: for Cognition Preference (investigation time for new matter/total investigation time): mice i.c.v. injected with beta amyloid (1-42), test on Days 2 and 3; for Cognition % of control: preference relative to control mice
Method: (§1) Mice 4-5 weeks old, each weighing 20˜25 g, were divided into groups of six. Intracerebroventricular injection was performed with a 50 μl Hamilton microsyringe fitted with a disposable 26-gauge needle as described by Laursen and Belknap (Laursen & Belknap, J. Pharmacol. Methods. 1986, 16, 355). It was inserted 2.4 mm deep into the bregma. All samples were administered to groups of 10 via oral routes or food pellets. After the intracerebroventricular injection, the compounds of the present invention were administered for 2 days to the mice which were then subjected to the Y-maze test on Day 2, the cognition test on Days 2 and 3, the passive avoidance test on Days 3 and 4, and the water maze test on Days 3 to 7. All data were averages of 6 measurements (mice).
(§2) For the cognitive performance task, two identical substances were respectively placed 5 cm apart from two corners and the time it took for a mouse to investigate the given and new substances was measured. Investigation was defined as the condition in which a mouse sniffed with the head directing toward the substance within a diameter of 2 cm or touched the substance.

[2] = system: beta amyloid (1-42) injected mice; assay: Passive avoidance test, acute Alzheimer's disease model; assay type: in vivo; set-up: Passive Avoidance % of control: concentration or dose not given beside the values; conditions: for Passive Avoidance % of control: latency relative to control mice; for Passive Avoidance Latency: mice i.c.v. injected with beta amyloid (1-42), test on Days 3 and 4, 24 hours after training
Method: as §1
(§3) A passive avoidance test was performed as described in the literature (Song et al. J. Neurochem., 1998, 71, 875). Used was a passive avoidance box which was divided into two compartments: a lighted one and a dark one, separated by an automatic guillotine door. For training, mice were placed in the lighted compartment and electrically shocked with 0.25 mA for 1 sec whenever they entered the darkened compartment. 24 hours after training, the mice were placed in the lighted compartment and measured for latency time before entering the darkened compartment.

[3] = system: beta amyloid (1-42) injected mice; assay: Y-maze task, acute Alzheimer's disease model; assay type: in vivo; conditions: mice i.c.v. injected with beta amyloid (1-42), compounds administered for 2 days, test on Day 2
Method: as §1
(§4) Short-term memory was assessed by spontaneous alternation behavior in the Y-maze task. Spontaneous alternation behavior is considered to reflect spatial working memory, which is a form of short-term memory. A mouse was placed in one arm of a Y-maze and allowed to freely pass the three arms for 8 min. Spontaneous alternation behavior was defined as successive entries into the three arms. Percentage spontaneous alternation was calculated as the ratio of actual to possible alternations […], multiplied by 100.

[4] = system: beta amyloid (1-42) injected mice; assay: Water maze test, acute Alzheimer's disease model; assay type: in vivo; conditions: mice injected with beta amyloid (1-42), Days 3 to 7
Method: as §1
In a water maze test, a mouse, when released from a randomly selected quadrant on each trial, was allowed to swim around the pool in search of an exit while the time taken to reach the platform (latency) was recorded.

HT-22 cells = assay: Cytotoxicity in HT-22 cell (MTT); assay type: cell-based, murine; conditions: compound 25 μM, 18 hrs
Method: The following experiment was performed with HT-22 cells in order to examine the cytotoxicity of the compounds of the Examples in accordance with the present invention.
(§5) The murine hippocampal neuronal cell line HT-22 was incubated at 37° C. in DMEM (Dulbecco's Modified Eagle's Medium) supplemented with 10% FBS (fetal bovine serum) and 1% penicillin/streptomycin in a 5% CO2 incubator. Before testing, HT-22 cells were seeded at a density of 5×10^3 cells/well onto 96-well plates containing serum-free DMEM and incubated for 1 hr. Afterwards, each of the compounds of Examples 1 to 27 was added at a concentration of 25 μM to each well before incubation for 18 hrs. 5 mg/ml MTT (3-(4,5-dimethyl-2-thiozolyl)-2,5-diphenyl-2H-tetrazolium bromide) solution was added in an amount of 15 μl per well and incubated for 4 hrs. A solubilization solution (10% SDS, 50% dimethylformamide, pH 4.7) was added in an amount of 100 μl to each well, followed by incubation for 18 hrs. Absorbance at 570 nm/630 nm was read on a microplate reader.

[5] = system: HT-22 cells incubated with beta amyloid (Aβ25-35); assay: Alleviating effect on beta amyloid toxicity in HT-22 cells (MTT); assay type: cell-based, murine; conditions: Mus musculus, compound pre-incubated 1 hr, then 25 μM beta amyloid (Aβ25-35) for 18 hrs, Aβ25-35 line = toxin alone, read-out: Cell Survival (%)
Method: as §5
The following experiment was performed in order to examine the ability of the compounds of the Examples in accordance with the present invention to alleviate beta amyloid toxicity. HT-22 cells were cultured and incubated with the compounds of Examples 1 to 27 for 1 hr in the same manner as in Example 2. Cell necrosis was induced by beta amyloid toxicity. For this, the cells were incubated with 25 μM of beta amyloid (Aβ25-35) for 18 hrs. Subsequently, a 5 mg/ml MTT solution was added in an amount of 15 μl to each well, followed by incubation for 4 hrs. Then, the cells were again incubated for 18 hrs with 100 μl/well of the solubilization solution. Absorbance at 570 nm/630 nm was read on a microplate reader.

beta amyloid (1-42) [6] = molecular target: beta amyloid (1-42) (Homo sapiens, UniProt P05067); assay: Inhibitory activity against beta amyloid fibril formation (ThT fluorescence); assay type: biochemical; conditions: for remaining activity at 10 µM: compound 10 μM, beta amyloid (1-42) 25 μM, 1 hr room temperature, beta amyloid alone (control) = 100
Method: The compounds of the present invention were assayed for inhibitory activity against the formation of beta amyloid fibrils as a function of ThT fluorescence intensity as follows. Beta amyloid (1-42) and each of the compounds of Examples 1 to 27 were dissolved in DMSO and diluted with PBS (phosphate-buffered saline, pH 7.4). The final concentrations of beta amyloid (1-42) (control) and each of the compounds of Examples 1 to 27 were set at 25 μM and 10 μM, respectively. The dilutions were incubated at room temperature for 1 hr before a solution of thioflavin T (ThT, 5 μM, pH 8.5) in glycin-NaOH buffer was added thereto. Fluorescence was measured at 450 nm for excitation (slit 10 nm) and […] for emission (slit 10 nm) on 96-well microplates using a multilabel fluorescence counter.

[7] = system: beta amyloid (1-42) injected mice; assay: Behavior tests with acute AD model taken together (Y-maze, cognitive performance, passive avoidance); assay type: in vivo; conditions: for Memory and learning of beta amyloid (1-42) injected mice (in words): data of Table 6, with statistical significance
Method: as §1, §4, §2, §3

beta amyloid (1-42) [8] = assay: ELISA for beta amyloid (1-42) in cerebra of transgenic mice; assay type: in vivo; conditions: 11 months old transgenic mice, versus control
Method: (§6) In order to examine whether this effect resulted from inhibitory activity against the deposition of beta amyloid or from a decrease in the level of beta amyloid, the cerebra of the transgenic mice were immunohistochemically analyzed. In this regard, after being removed from the transgenic mice which were 11 months old upon completion of the behavior test, the right cerebral hemispheres were measured for amyloid plaque levels in the cerebral cortex and hippocampus using an immunostaining or ELISA (Enzyme-linked immunosorbent assay) method.
(§7) Amyloid plaques were stained with Congo red and counted. […] FIG. 4D gives neuronal cell count data, showing a larger crowd in the group treated with the compound of Example 1.

[9] = system: double transgenic mice with mutations in both APP and presenilin 1; assay: Context fear conditioning in transgenic mice; assay type: in vivo
Method: (§8) Double transgenic mice with mutations in both APP and presenilin 1 were used for the tests. The double transgenic mice, each weighing 26-39 g, were eight months old. They were divided into groups of 10 and administered for 2 to 3 months with the compound of Example 1 through food pellets (3 mg/pellet) before conducting the behavior tests.
A memory test was performed in context fear conditioning. Five trials of tone-shock pairing of CS-US (conditioned stimulus-unconditioned stimulus) were given to mice. On the next day, the mice were left in the stimulated context under no stimulus conditions and observed for freezing. […] During the test, there was no difference in average body weight between the two groups.

neurons = assay: Neuronal cell count in cerebra of transgenic mice; assay type: in vivo; conditions: 11 months old transgenic mice, versus control
Method: as §6, §7

[10] = system: double transgenic mice with mutations in both APP and presenilin 1; assay: Y-maze task and cognitive performance tests in transgenic mice; assay type: in vivo; conditions: food pellets (3 mg/pellet) for 2 months, 10 month old transgenic mice
Method: as §8
After administration of the compound of Example 1 for 2 months (for 10 month old mice), the mice were tested for learning and memory through the Y-maze task and cognitive performance tests.

beta amyloid (1-40) = assay: ELISA for beta amyloid (1-40) in cerebra of transgenic mice; assay type: in vivo; conditions: 11 months old transgenic mice, versus control
Method: as §6, §7

amyloid plaques = assay: Amyloid plaque counts (Congo red) in cerebra of transgenic mice; assay type: in vivo; conditions: cerebral cortex and hippocampus, 11 months old transgenic mice, versus control
Method: as §6, §7

[11] = compared to beta amyloid (1-42) injected mice, % of control

Chain of beta amyloid (1-42) (Homo sapiens, UniProt P05067) (P05067 672-713 limits assumed): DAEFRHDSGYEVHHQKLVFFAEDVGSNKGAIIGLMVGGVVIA

| remaining activity at 10 µM (beta amyloid (1-42) [6]) [%] | Molecule | Cognition Preference (investigation time for new matter/total investigation time) [1] | Cognition % of control [1] [%] | Passive Avoidance % of control [2] [%] | Passive Avoidance Latency [2] [s] | Y-Maze Spontaneous Alternation (%) [3] [%] | Spatial learning ability in water maze (latency over sessions), FIG. 1 [4] | Cell Survival (%) (HT-22 cells) | viability at 25 µM [5] [%] | Memory and learning of beta amyloid (1-42) injected mice (in words) [7] | further results |
| --- | --- | --- | --- | --- | --- | --- | --- | --- | --- | --- | --- |
|  | Aβ1-42: beta amyloid peptide of 42 amino acids, injected intracerebroventricularly into mice to induce acute Alzheimer's disease [reference compound] | 0.54 ± 0.02 | 84 | 50.4 | 89.9 | 61.6 | deficient in spatial memory |  |  |  | Reduction of preference for the new matter compared to the control ([1]; beta amyloid (1-42) injected mice): about 16%; Passive Avoidance % of control ([2]; listed as beta amyloid (1-42)): about 50% |
| 16.5 ± 2.6 | CN(C)c1cc(/C=C/c2cc(/C=C/c3ccc(O)c(N(C)C)c3)ncn2)ccc1O [Ex. 2, (E,E)-4,6-Bis[4′-hydroxy-3′-(N,N-dimethylamino)styryl]pyrimidine] | 0.53 ± 0.05 | 82 | 66.1 | 117.8 | 71.3 | recover spatial learning ability | 146.2 ± 26.6 | 85.3 ± 0.1 | increased memory |  |
| 20.7 ± 5.4 | COc1cc(/C=C/c2cc(/C=C/c3ccc(O)c(OC)c3)ncn2)ccc1O [Ex. 6, (E,E)-4,6-bis(4′-hydroxy-3′-methoxystyryl)pyrimidine] | 0.61 ± 0.03 | 95 | 78.1 | 139.2 | 67.9 | recover spatial learning ability | 215.6 ± 3.5 | 103 ± 13 | increased memory | Recovery of preference for the new matter [1, 11]: about 11% |
| 19.1 ± 0.6 | COc1ccc(/C=C/c2cc(/C=C/c3ccc(OC)c(O)c3)ncn2)cc1O [Ex. 1, (E,E)-4,6-Bis(3′-hydroxy-4′-methoxystyryl)pyrimidine] | 0.59 ± 0.03 | 92 | 80.9 | 144.2 | 72.2 | recover spatial learning ability | 135.6 ± 6.1 | 91.8 ± 8.8 | increased memory | Improvement in passive avoidance performance [2, 11]: highest improvement; Level of beta amyloid (1-42), ELISA, FIG. 4C (beta amyloid (1-42) [8]): decreasing pattern; Average body weight ([9]; transgenic mice during the test, treated versus control group): no difference; Freezing in context fear conditioning, FIG. 3C ([9]; transgenic mice, compared to control): longer time freezing; Neuronal cell count, FIG. 4D (neurons): larger crowd; Learning and memory improvement, dose dependence, FIG. 2 ([7]; 50, 100, 200 mg/kg p.o., Y-maze, cognitive performance, passive avoidance): dose-dependent manner; Learning and memory in Y-maze and cognitive performance, FIGS. 3A and 3B [10]: memory impairment was alleviated; Level of beta amyloid (1-40), ELISA, FIG. 4B (beta amyloid (1-40)): decreasing pattern; Counts of amyloid plaques stained with Congo red, FIG. 4A (amyloid plaques): smaller |
| 6.3 ± 1.8 | CN(C)c1ccc(/C=C/c2cc(/C=C/c3ccc(N(C)C)c(O)c3)ncn2)cc1O [Ex. 7, (E,E)-4,6-bis[3′-hydroxy-4′-(N,N-dimethylamino)styryl]pyrimidine] | 0.57 ± 0.02 | 89 | 68.7 | 122.5 | 67.0 | recover spatial learning ability | 132.8 ± 41.1 | 76.6 ± 12.1 | increased memory | Inhibitory activity against fibril formation (in words) (beta amyloid (1-42) [6]; Table 3): remarkable inhibitory activity |
